Results reported in patent US20090081197A1 (Palatin Technologies, Inc., priority 2007, published 2009).

How the values were obtained:
[1] = molecular target: T1, MC1-R (Mus musculus, UniProt Q01727); assay: Competitive inhibition assay using [I^125]-NDP-α-MSH, B-16 mouse melanoma cell membranes; format: binding; conditions: for inhibition at 1 µM: 1 μM test compound, read-out: Inhibition at 1 μM (NDP-α-MSH) In Normal System, MC1-R; for Ki: read-out: Ki (nM) (NDP-α-MSH) In Normal System, MC1-R
T1 construct: B-16 mouse melanoma cells (containing MC1-R); endogenous in cells
T1 sequence (Q01727 whole entry): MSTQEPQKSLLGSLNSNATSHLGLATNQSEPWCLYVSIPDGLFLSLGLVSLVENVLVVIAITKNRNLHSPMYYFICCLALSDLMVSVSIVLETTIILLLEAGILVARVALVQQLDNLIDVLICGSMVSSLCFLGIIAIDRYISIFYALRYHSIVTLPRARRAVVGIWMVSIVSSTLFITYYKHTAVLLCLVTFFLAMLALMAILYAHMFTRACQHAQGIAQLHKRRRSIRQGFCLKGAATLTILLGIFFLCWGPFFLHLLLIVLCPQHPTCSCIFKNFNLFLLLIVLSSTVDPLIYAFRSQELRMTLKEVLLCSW
Method in brief: (§1)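 Tracer was 0.4 nM for MC3-R and MC5-R, 0.2 nM for MC4-R and 0.1 nM for MC1-R. Bound radioactivity was gamma-counted after filtration; values are triplicate means, with results below 0% reported as 0%.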

[2] = molecular target: T1, MC1-R; assay: cAMP functional activity assay in B-16 mouse melanoma cells; format: cell-based; conditions: 1 μM concentration where stated
Description: (§2) General method for EC50 determination in functional activity assay. […] Data analysis and EC50 values were determined using nonlinear regression analysis with Prism Graph-Pad software.
(§3) Functional status. The agonist/antagonist status with respect to MC1-R, MC-3R, MC4-R and MC5-R of certain compounds of the invention was determined. Antagonistic activity was determined by measuring the inhibition of α-MSH-induced or NDP-α-MSH-induced cAMP levels following exposure to graded doses of compounds as in the preceding descriptions.

[3] = Penile erection induction in male rats; format: in vivo; conditions: rat
Method in brief: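 Male Sprague-Dawley rats (200-250 g), groups of 4-8, dosed IV or ICV at various doses and observed individually for penile erections. Only statistically relevant increases over vehicle-control mean PEs count as induction; IV responses below 1.0 PEs/rat treated as equivocal, some retested ICV.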

[4] = IV and IP food intake and body weight change, rats; format: in vivo; conditions: rat, IV, 10 mg/kg, 24 hours
Description: (§4) IV and IP food intake and body weight change. Change in food intake and body weight was evaluated for selected compounds. Male Sprague-Dawley rats or male C57BL/6 mice were utilized. Animals were individually housed in conventional plexiglass hanging cages and maintained on a controlled 12 hour on/off light cycle. Water and powdered (LabDiet, 5P00 Prolab RMH 3000) or pelleted (Harlan Teklad 2018 18% Protein Rodent Diet) food was provided ad libitum. For 1 week before treatment, 24-hour food intake and body weight change was recorded to assess a baseline for the group during vehicle treatment. The rats were dosed IV with vehicle or selected compounds (0.5-3 mg/kg, and in some cases up to 10 mg/Kg) or dosed intraperitoneally (IP) with vehicle or selected compounds (0.5-10 mg/kg, and in some cases up to 50 mg/kg). Mice were dosed IP. The changes in body weight and food intake for the 24 hour period after dosing were determined. The changes in body weight and food intake for the 48 hour and 72 hour periods after dosing were also measured to determined reversal of changes in body weight and food intake effects back to baseline levels.

[5] = IP (and IN) food intake, mice; format: in vivo; conditions: mouse, IP, 4 hours
Method in brief: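 Male Sprague-Dawley rats dosed IV (0.5-3, up to 10 mg/kg) or IP (0.5-10, up to 50 mg/kg); male C57BL/6 mice dosed IP. Change in food intake and body weight over 24 h post-dose versus 1-week vehicle baseline, with 48 and 72 h reversal checks.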

[6] = molecular target: T2, MC3-R (Homo sapiens, UniProt P41968); assay: Competitive inhibition assay using [I^125]-NDP-α-MSH, hMC3-R membranes; format: binding; design: expressed in transfected cells; conditions: 1 μM test compound; read-out: Inhibition at 1 μM (NDP-α-MSH) In Normal System, MC3-R
T2 sequence (P41968 whole entry): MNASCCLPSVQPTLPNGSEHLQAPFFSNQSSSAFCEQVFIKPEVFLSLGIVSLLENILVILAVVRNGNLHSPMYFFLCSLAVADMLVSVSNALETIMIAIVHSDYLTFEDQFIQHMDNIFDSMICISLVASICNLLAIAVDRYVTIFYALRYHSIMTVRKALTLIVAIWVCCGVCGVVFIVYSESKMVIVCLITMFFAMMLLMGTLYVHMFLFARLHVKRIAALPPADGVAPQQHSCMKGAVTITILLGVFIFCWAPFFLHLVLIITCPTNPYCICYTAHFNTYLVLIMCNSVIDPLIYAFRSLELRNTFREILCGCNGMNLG
Method in brief: as §1

[7] = molecular target: T3, MC5-R (Homo sapiens, UniProt P33032); assay: Competitive inhibition assay using [I^125]-NDP-α-MSH, hMC5-R membranes; format: binding; design: expressed in transfected cells; conditions: 1 μM test compound; read-out: Inhibition at 1 μM (NDP-α-MSH) In Normal System, MC5-R
T3 sequence (P33032 whole entry): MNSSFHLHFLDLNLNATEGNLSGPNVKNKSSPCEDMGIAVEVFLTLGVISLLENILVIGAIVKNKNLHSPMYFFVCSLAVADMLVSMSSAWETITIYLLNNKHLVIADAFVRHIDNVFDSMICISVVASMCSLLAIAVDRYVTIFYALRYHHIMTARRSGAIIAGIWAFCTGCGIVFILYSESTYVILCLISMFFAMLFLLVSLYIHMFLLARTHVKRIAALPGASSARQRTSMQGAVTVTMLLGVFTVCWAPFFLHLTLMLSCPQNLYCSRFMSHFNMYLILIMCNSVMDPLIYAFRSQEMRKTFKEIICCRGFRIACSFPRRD
Method in brief: as §1

[8] = molecular target: T4, MC4-R (Homo sapiens, UniProt P32245); assay: cAMP functional activity assay in HEK-293 cells, normal system; format: cell-based; design: expressed in transfected cells; host or cells: HEK-293; conditions: for intrinsic activity at MC4-R in a normal system: normal receptor density system, NDP-α-MSH = 1.0; for functional status at MC4-R in cAMP assay: normal system, 1 μM concentration where stated
T4 sequence (P32245 whole entry): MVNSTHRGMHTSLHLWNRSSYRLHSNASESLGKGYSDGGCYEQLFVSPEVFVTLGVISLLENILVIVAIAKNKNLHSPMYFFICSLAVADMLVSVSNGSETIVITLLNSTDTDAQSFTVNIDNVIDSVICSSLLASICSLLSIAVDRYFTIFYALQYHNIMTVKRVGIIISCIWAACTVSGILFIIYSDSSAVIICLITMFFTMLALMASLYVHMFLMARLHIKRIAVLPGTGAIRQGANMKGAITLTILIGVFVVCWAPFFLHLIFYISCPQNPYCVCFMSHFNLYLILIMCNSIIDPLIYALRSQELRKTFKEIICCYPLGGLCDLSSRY

[9] = molecular target: T2, MC3-R; assay: cAMP functional activity assay in HEK-293 cells; format: cell-based; design: expressed in transfected cells; host or cells: HEK-293; conditions: 1 μM concentration where stated
Description: as §2, §3

[10] = molecular target: T3, MC5-R; assay: cAMP functional activity assay in HEK-293 cells; format: cell-based; design: expressed in transfected cells; host or cells: HEK-293; conditions: 1 μM concentration where stated
Description: as §2, §3

[11] = molecular target: T4, MC4-R; assay: Competitive inhibition assay using [I^125]-NDP-α-MSH, hMC4-R membranes; format: binding; design: host or cells: TREx-293 (HEK-293 stably expressing Tet repressor); conditions: 1 μM test compound; read-out: Inhibition at 1 μM (NDP-α-MSH) In Normal System, MC4-R
Method in brief: as §1

[12] = molecular target: T4, MC4-R; assay: cAMP agonist stimulation, low receptor density system (0.1 ng/mL doxycycline); conditions: for Efficacy/Intrinsic Activity: 0.1 ng/mL doxycycline, low receptor density hMC4-R system, NDP-α-MSH maximal cAMP = 1.0
[13] = molecular target: T4, MC4-R; assay: cAMP agonist stimulation, high receptor density system (10 ng/mL doxycycline); conditions: for Efficacy/Intrinsic Activity: 10 ng/mL doxycycline, high receptor density hMC4-R system, NDP-α-MSH maximal cAMP = 1.0
[14] = ICV food intake and body weight change; format: in vivo; conditions: rat, 1 nmol, 24 hours
Description: as §4, with “ICV food” for “IV and IP food”, “compounds. Rats with indwelling intracerebroventricular cannulas (ICV rats)” for “compounds. Male Sprague-Dawley rats or male C57BL/6 mice”, “were obtained from Hilltop Lab Animals, Inc. (Scottdale, Pa.).” for “were utilized.”, “dosed ICV” for “dosed IV”, “compounds (1-3 nmol).” for “compounds (0.5-3 mg/kg, and in some cases up to 10 mg/Kg) or dosed intraperitoneally (IP) with vehicle or selected compounds (0.5-10 mg/kg, and in some cases up to 50 mg/kg). Mice were dosed IP.”, “to determine” for “to determined”

Row | Compound | inhibition at 1 µM [1] [%] | Ki [1] [nM] | functional status at MC1-R in cAMP assay [2] | Penile Erection IV ([3]; IV) | inhibition at 1 µM [6] [%] | inhibition at 1 µM [7] [%] | intrinsic activity at MC4-R in a normal system [8] | functional status at MC4-R in cAMP assay [8] | functional status at MC3-R in cAMP assay [9] | functional status at MC5-R in cAMP assay [10] | inhibition at 1 µM [11] [%] | Efficacy/Intrinsic Activity [12] | EC50 [13] [nM] | Efficacy/Intrinsic Activity [13] | Penile Erection ICV ([3]; ICV) | penile erection response ([3]; IV, 0.3 to 30 μg/kg) | other results
1 | Cc1cc(Cl)ccc1C[C@@H](N)C(=O)N1C[C@@H](C)N(C(=O)Cc2ccc3ccccc3c2)C[C@@H]1CCCNC(=N)N [Example 10, N-{3-[1-[2(R)-Amino-3-(4-chloro-2-dimethyl-phenyl)-propionyl]-5(R)-methyl(2-naphthalen-2-yl-acetyl)-piperazin-2(S)-yl]-propyl}-guanidine] | 3 | 462 | partial agonist (intrinsic activity between 0.1 (10%) and 0.7 (70%) is classified as a partial agonist) | Yes* | 34 | 36 | 0.9 | agonist (intrinsic activity of 0.7 (70%) or higher is classified as an agonist) | partial agonist (intrinsic activity between 0.1 (10%) and 0.7 (70%) is classified as a partial agonist) | agonist (intrinsic activity of 0.7 (70%) or higher is classified as an agonist) | 96 | 0.23 | 26 | 0.69 | – | – | animals responding ([3]; IV, 0.3 to 30 μg/kg): not more than 66%; maximal decrease in food intake [4]: 33%; maximal decrease in food intake ([5]; 10 mg/kg): 27%; EC50 [12]: 38 nM
2 | Cc1cc(Cl)ccc1C[C@@H](N)C(=O)N1C[C@@H](C)N(CCc2c[nH]c3ccccc23)C[C@@H]1CCCNC(=N)N [Example 9, N-(3-{1-(2(R)-Amino-(4-chloro-2-methyl-phenyl)-propionyl)-5(R)-methyl-4-[2-(1H-indol-3-yl)-ethyl]-piperazin-2(S)-yl}-propyl)-guanidine] | 40 | 1730 | no intrinsic activity (intrinsic activity below 0.1 (10%) is classified as inactive or having no intrinsic activity) | No | 74 | 75 | 1 | full agonist | no intrinsic activity (intrinsic activity below 0.1 (10%) is classified as inactive or having no intrinsic activity) | no intrinsic activity (intrinsic activity below 0.1 (10%) is classified as inactive or having no intrinsic activity) | 98 | None | 22 | 0.73 | No | no penile erection response | penile erection response ([3]; ICV, 0.01 to 10 nmol): no penile erection response; decrease in body weight [14]: 2%; decrease in food intake [14]: 16%; maximal decrease in food intake ([5]; 3 mg/kg): 10%
3 | Cc1[nH]c2ccccc2c1CCN1C[C@H](CCCNC(=N)N)N(C(=O)[C@H](N)Cc2ccc3ccccc3c2)C[C@H]1C [Example 8, N-(3-{1-(2(R)-Amino-3-naphthalen-2-yl-propionyl)-5(R)-methyl-4-[2-(2-methyl-1H-indol-3-yl)-ethyl]-piperazin-2(S)-yl}-propyl)-guanidine] | 73 | 148 | partial agonist (intrinsic activity between 0.1 (10%) and 0.7 (70%) is classified as a partial agonist) | – | 57 | 76 | 0.9 | agonist (intrinsic activity of 0.7 (70%) or higher is classified as an agonist) | no intrinsic activity (intrinsic activity below 0.1 (10%) is classified as inactive or having no intrinsic activity) | agonist (intrinsic activity of 0.7 (70%) or higher is classified as an agonist) | 95 | None | – | None | No | – | penile erection response ([3]; ICV, 0.01 to 10 nM): no penile erection response
4 | C[C@@H]1CN(C(=O)[C@H](N)Cc2ccc3ccccc3c2)[C@@H](CCCNC(=N)N)CN1C(=O)Cc1c[nH]c2ccccc12 [Example 6, N-{3-[1-(2(R)-Amino-3-naphthalen-2-yl-propionyl)-4-(2-1H-indol-3-yl-acetyl)-5(R)-methyl-piperazin-2(S)-yl]-propyl}-guanidine] | 20 | 315 | no intrinsic activity (intrinsic activity below 0.1 (10%) is classified as inactive or having no intrinsic activity) | No | 35 | 6 | 0.2 | partial agonist (intrinsic activity between 0.1 (10%) and 0.7 (70%) is classified as a partial agonist) | no intrinsic activity (intrinsic activity below 0.1 (10%) is classified as inactive or having no intrinsic activity) | partial agonist (intrinsic activity between 0.1 (10%) and 0.7 (70%) is classified as a partial agonist) | 90 | None | 39 | 0.43 | – | no penile erection response | –
